The test system of data set [1] is immature female rats (uterine weight). Kind of data set: In vivo systemic estrogenic assay (uterotrophic assay, uterine weight). Further details: species or system rat. As to conditions: for uterotrophic effect expressed as equivalent amount of E2: 100 μg total dose. On the procedure:
FIG. 2 depicts of the results of an in vivo systemic estrogenic assay (uterotrophic assay) as described in the experimental section. […] On the fourth day the animals were killed, the uteri removed and weighed. The total dose is shown. Controls were injected with sesame oil. Error bars are±S.D. n=5. *P<0.05, **P<0.001 when compared to the control.
In Vivo Estrogen Bioassays: Uterine Weight. […] Control animals received sesame oil. On the fourth day, the animals were killed, the uteri were removed, dissected, blotted and weighed. Each compound was assayed in 3 separate experiments with n=5.

The test system of data set [2] is ovariectomized mouse vagina (vaginal reductase activity). As to the kind of experiment: In vivo local estrogenic assay (vaginal reductases). The conditions noted are these: for vaginal estrogenic effect: 50 ng in sesame oil (FIG. 3b); for dose producing a statistically significant (P<0.001) stimulation of vaginal reductase: intravaginal single dose in 25% propylene glycol in saline (FIG. 3a). On the procedure:
FIG. 3 depicts the results of in vivo local estrogenic assay (vaginal assay).
Controls were injected with vehicle. The next morning, 2,3,5-triphenyltetrazolium chloride was instilled in the vagina and thirty minutes later the animals were killed and the vaginal reductase activity was determined spectrophotometrically Panel a: the steroids were dissolved in 10 μL of 25% propylene glycol in saline. Panel b: the steroids were dissolved in 10 μL of sesame oil. n=5. Error bars are±S.D. *P<0.001 compared to the control.
In Vivo Estrogen Bioassays: Vaginal reductases. […] In some experiments as indicated, the method was modified by dissolving and injecting the estrogens in 10 μL of sesame oil. The next morning 0.5 mg of 2,3,5-triphenyltetrazolium chloride in 20 μL of saline was instilled in the vagina. Thirty minutes the animals were killed and the vaginas removed, washed thoroughly with saline and then blotted on filter paper. Each vagina was placed in a 12×75 mm test tube and extracted for 1 hour with ethanol/tetrachloroethylene (3:1). Afterwards, the solvent was removed and the formazan product in the organic extract was quantified at 500 nm. Each compound was assayed on at least 3 separate occasions with at least 5 replicates each time.

The subject of the next data set is human ERβ and ERα. Kind of data set: Competitive binding to human ERβ and ERα expressed in Escherichia coli lysates (ratio of RBAs). The conditions noted are these: RBAs (E2 = 100) in E. coli lysates expressing human ERβ and ERα separately.
Data set [3] relates to esterase(s) in rat hepatic microsomes. As to the kind of experiment: Esterase assay with rat hepatic microsomes. Format: in vitro ADME. The conditions noted are these: ± S.D.; for Esterase RHA (relative hydrolytic activity): rat hepatic microsomes, E16-1,2 = 100. On the procedure: Esterase. Esterase activity was measured in rat hepatic microsomes essentially using the conditions described.^39 Liver obtained from Sprague-Dawley rats was washed with phosphate buffered saline and homogenized in 3 volumes of cold 0.25 M sucrose and centrifuged at 700 g for 10 min and then at 10,000 g for 20 min. The resulting supernatant was centrifuged at 105,000 g for 60 min. The pellet was suspended in 0.1 M phosphate buffer pH 7.4 and washed by centrifugation at 105,000 g for 60 min. The washed pellet was suspended in 0.1 M Tris-HCl pH 8.0 at a concentration of ˜13 mg protein/ml and frozen at −80° C. For assay, the pellets were thawed and diluted with the same buffer. The incubation mixture consisted of the microsomal enzyme preparation, 0.28 mg protein/ml, E2-16α-alkyl esters, 50 μM, added in 10 μL of ethanol, all in a final volume of 1 mL of Tris buffer pH 8.0. Since the rates of reaction are widely different for the various esters, the incubation times were varied accordingly to obtain linear kinetics. At several appropriate time points, 100 μL aliquots were withdrawn and the reaction was quenched with 33 μL CH3CN, followed by a 33 μL of a solution of THF containing 1 […] of the internal standard, 6-ketoestradiol. The quenched aliquot was centrifuged for several minutes on bench-top centrifuge and 80 μl of the supernatant was analyzed for the esterase-hydrolysis product (the corresponding E2-16α-carboxylic acid: E16-1,0 8; E16-2,0 23; E16-3,0 35) by reversed phase HPLC with system H-10 for E2-16-1 and E2-16-2 esters, and with system H-15 for E2-16-3 esters. The E2-16α-carboxyl products, (Rt for E16-1,0 8=7 min and for E16-2,0 23=9 min, E16-3,0 35=6.5 min) and the internal standard, 6-ketoestradiol (Rt 7.5 min in system H-10, and 5 min in system H-15) were quantified at 280 nm on the HPLC UV detector. The UV absorbance was converted to moles of product by comparison to standard curves and corrected for recovery of the internal standard, 6-ketoestradiol. The velocity of the reaction for each ester, in nmol product/min/ml/ was then normalized to the ester, E16-1,2 10 and is shown in Table 1 as relative hydrolytic activity (RHA). The enzymatic velocity for the hydrolysis of E16-1,2 10 was 0.9±0.2 (S.D.) nmol product/min/ml over the various experiments. Since all of the esters could not be tested simultaneously, in each case we compared the rate of hydrolysis of the test compound to that of E16-1,2 10 run concurrently. All compounds were tested in triplicate in 3 separate experiments.

Data set [4] deals with T1, ER in rat uterine cytosol (ERα) (Rattus norvegicus, UniProt P06211).
T1 construct: The uterus was removed and homogenized in ice-cold TEGDMo buffer; from tissue; host or cells: uterine cytosol of castrated female Sprague Dawley rats
T1 sequence (P06211 1-600): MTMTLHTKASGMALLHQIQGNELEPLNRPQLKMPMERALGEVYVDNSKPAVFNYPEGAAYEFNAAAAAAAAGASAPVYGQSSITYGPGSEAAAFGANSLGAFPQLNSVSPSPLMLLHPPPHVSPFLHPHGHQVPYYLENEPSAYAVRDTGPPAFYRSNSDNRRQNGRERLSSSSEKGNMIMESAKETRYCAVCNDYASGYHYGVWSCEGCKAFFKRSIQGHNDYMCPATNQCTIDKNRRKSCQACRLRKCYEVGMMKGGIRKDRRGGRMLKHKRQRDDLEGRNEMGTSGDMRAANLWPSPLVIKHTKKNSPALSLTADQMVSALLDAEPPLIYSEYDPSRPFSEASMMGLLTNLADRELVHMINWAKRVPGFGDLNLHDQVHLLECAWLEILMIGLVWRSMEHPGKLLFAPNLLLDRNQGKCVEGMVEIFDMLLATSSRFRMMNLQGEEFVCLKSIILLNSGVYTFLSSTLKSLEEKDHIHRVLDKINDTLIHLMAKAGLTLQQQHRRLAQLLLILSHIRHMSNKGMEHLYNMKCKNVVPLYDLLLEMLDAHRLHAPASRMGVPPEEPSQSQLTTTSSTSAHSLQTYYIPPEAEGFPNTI
As to the kind of experiment: Competitive binding to the ER in rat uterine cytosol (RBA vs [3H]E2). The conditions noted are these: for ER RBA (relative binding affinity): rat uterine estrogen receptor assay, E2 = 100, ± S.D.; for RBA: uterine cytosol (ERα), relative to E2. As for the experimental part:
Competitive Binding to the Estrogen Receptor ERα and ERβ. […] The ER in uterine cytosol is ERα the classical form of the ER.^38 Female Sprague Dawley rats were castrated and sacrificed 24 h later. The uterus was removed and homogenized in ice-cold TEGDMo buffer (10 mM Tris, 1.5 mM Na2-EDTA, 10% (v/v) glycerol, 1.0 mM dithiothreitol, 25 mM sodium molybdate, pH 7.4 at 4° C.). and centrifuged at 105,000 g for 45 min at 4° C. The supernatant (cytosol) was frozen on dry ice and stored at −80° C. until assay. […] Incubations were carried out on ice overnight and bound radioactivity was separated from free by adsorption with dextran coated charcoal and quantified by counting.^26 Relative Binding Affinity (RBA) was determined by analysis of the displacement curves by the curve-fitting program Prism (Graph-Pad Software inc., San Diego, Calif.). The results shown in Table 1. below, are from at least 3 separate experiments performed in duplicate.

For data set [5], the system named is alkaline phosphatase (AlkP) induction in Ishikawa cells. Kind of data set: Estrogenic potency in Ishikawa cells: induction of AlkP. In kind it is cell-based, human. The conditions noted are these: for RSA (estrogenic potency compared to E2): Ishikawa AlkP; for Ishikawa Cell AlkP RSA (relative stimulatory activity): induction of AlkP, E2 = 100, ± S.D. As for the experimental part:
Estrogenic Potency in Ishikawa Cells. The estrogenic potency of the E2-analogs was determined in a estrogen bioassay, the induction of AlkP in human endometrial adenocarcinoma cells (Ishikawa) grown in 96-well microtiter plates as we have previously described.^28 In short, the cells are grown in phenol red free medium with estrogen depleted (charcoal stripped) bovine serum in the presence or absence of varying amounts of the steroids. […] After 3 days, the cells are washed, frozen and thawed, and then incubated with 5 mM p-nitrophenyl phosphate, a chromogenic substrate for the AlkP enzyme, at pH 9.8. To ensure linear enzymatic analysis, the plates are monitored kinetically for the for the production of p-nitrophenol at 405 nm. The relative stimulatory activity is determined by analysis of the curve fitting program Prism. Each compound was analyzed in at least 3 separate experiments performed in duplicate.

The values that follow come from patent publication US6476012B2, “Estradiol-16α-carboxylic acid esters as locally active estrogens” (Yale University, priority 2001, dated 2002).

Where a name gives a salt, the structure may show the parent alone.

With `COC(=O)[C@@H]1C[C@H]2[C@@H]3CCc4cc(O)ccc4[C@H]3CC[C@]2(C)[C@H]1O` [E16-1,1, Methyl (3,17β-dihydroxyestra-1,3,5(10)-trien-16α-yl) formate], the “uterotrophic effect” value in data set [1] (10 μg total dose per animal) was “small stimulatory action (P<0.05)”. The “uterotrophic stimulation expressed as equivalent amount of E2” value in data set [1] (30 μg total dose) is given as roughly 3 ng. Also, the “uterotrophic effect expressed as equivalent amount of E2” value in data set [1] is on record as “about 4 μg”. In data set [1] (immature rat, s.c. in sesame oil, 3 days, total dose), the “dose producing a reproducible and statistically significant stimulation (P<0.01)” value lay within 30 to 50 µg. Further, in data set [2], the “vaginal estrogenic effect” value was “still not stimulatory” and the “dose producing a statistically significant (P<0.001) stimulation of vaginal reductase” value came out at 250 ng. Also, the “ERα/ERβ (ratio of the RBAs)” value in the data set on human ERβ and ERα was 750. Besides, the “Esterase RHA (relative hydrolytic activity)” value in data set [3] is on record as 45 ± 10. In data set [4], the “ER RBA (relative binding affinity)” value amounted to 35 ± 4 and the RBA stood at 35%. In addition, in data set [5], the “RSA (estrogenic potency compared to E2)” value came to 10% and the “Ishikawa Cell AlkP RSA (relative stimulatory activity)” value came out at 10 ±3.
In the case of `CCOC(=O)[C@@H]1C[C@H]2[C@@H]3CCc4cc(O)ccc4[C@H]3CC[C@]2(C)[C@H]1O` [E16-1,2, Ethyl (3,17β-dihydroxyestra-1,3,5(10)-trien-16α-yl) formate], the “uterotrophic effect” value in data set [1] (10 μg total dose per animal) is “no measurable stimulation”. Besides, the “uterotrophic effect” value in data set [1] (30 μg total dose) was “small increase in uterine weight”. In data set [1], the “uterotrophic effect expressed as equivalent amount of E2” value is reported as “about 4 μg”. Moreover, in data set [2], the “vaginal estrogenic effect” value is “still not stimulatory” and the “dose producing a statistically significant (P<0.001) stimulation of vaginal reductase” value worked out at 250 ng. Moreover, the “ERα/ERβ (ratio of the RBAs)” value with human ERβ and ERα is given as 1,300. For the same compound, the “enzymatic velocity for the hydrolysis” value in data set [3] (rat hepatic microsomes 0.28 mg protein/ml, ester 50 μM, pH 8.0) amounted to 0.9±0.2 nmol product/min/ml. Also, in data set [3], the “Esterase RHA (relative hydrolytic activity)” value is on record as 100. Besides, in data set [4], the “ER RBA (relative binding affinity)” value stood at 40 ± 10 and the RBA was 40%. In addition, in data set [5], the “RSA (estrogenic potency compared to E2)” value was 11% and the “Ishikawa Cell AlkP RSA (relative stimulatory activity)” value stood at 11 ± 5.
For `C[C@]12CC[C@@H]3c4ccc(O)cc4CC[C@H]3[C@@H]1C[C@@H](C(=O)OCC(F)F)[C@@H]2O` [E16-1,2F2, 2′,2′-Difluoroethyl (3,17β-dihydroxyestra-1,3,5(10)-trien-16α-yl) formate], the “ERα/ERβ (ratio of the RBAs)” value in the data set with human ERβ and ERα is given as 1,800. Moreover, the “Esterase RHA (relative hydrolytic activity)” value in data set [3] is reported as 2,350 ± 275. Further, in data set [4], the “ER RBA (relative binding affinity)” value worked out at 10 ± 3 and the RBA worked out at 10%. Further, in data set [5], the “Ishikawa Cell AlkP RSA (relative stimulatory activity)” value is 4 ± 1.
As for `CCOC(=O)C[C@@H]1C[C@H]2[C@@H]3CCc4cc(O)ccc4[C@H]3CC[C@]2(C)[C@H]1O` [E16-2,2, Ethyl (3,17β-dihydroxyestra-1,3,5(10)-trien-16α-yl) acetate], the “Esterase RHA (relative hydrolytic activity)” value in data set [3] worked out at 700 ± 120. In data set [4], the “ER RBA (relative binding affinity)” value worked out at 5 ± 1 and the RBA was 5%. Further, the “Ishikawa Cell AlkP RSA (relative stimulatory activity)” value in data set [5] was found to be 0.3 ± 0.1.
The like results for `COC(=O)CC[C@@H]1C[C@H]2[C@@H]3CCc4cc(O)ccc4[C@H]3CC[C@]2(C)[C@H]1O` [E16-3,1, Methyl 3-(3,17β-dihydroxyestra-1,3,5(10)-trien-16α-yl)propanoate] were, in that order, 910 ± 100, 1 ± 1, 1% and 0.
